How the values were obtained:
70Z/3 murine B-cells = assay: LPS-induced CD40 expression in 70Z/3 cells; assay type: cell-based; conditions: 3 hr treatment prior to LPS, FIG. 5
Experimental: Expression of κ Ig, CD45, CD40, and the interleukin-2 receptor was assayed using standard enzyme-linked immunosorbent assays ("ELISAs") (see, Coligan et al. (eds.) (1991) Current Protocols in Immunology, Wiley & Sons, p. 2.10 or by FACS staining to measure cell-surface markers as described in Raff (1970) Immunology 19:637). Antibodies form cell surface markers were obtained from Pharmingen Co.
70Z/3 murine B-cells were treated with the SV40MEM polypeptide for 3 hr prior to activation with LPS. After activation with LPS, there was an approximately four-fold increase in CD40 expression above basal levels.

[1] = system: BALB/c mice immunized with sheep red blood cells; assay: Murine sheep red blood cell assay (anti-SRBC antibody response); assay type: in vivo
Experimental: Female BALB/c mice (6-8 weeks of age) were housed in groups of 5 in Thorne units with ad libitum access to food and water. Mice were immunized on day 0 by intravenous (IV) injection of 1×10^8 sheep red blood cells ("SRBCs"). The mice were then divided into groups of five and control solutions or inhibitory peptides were administered at various doses, either by IV injection or orally ("PO") by gavage with a 24-gauge feeding tube and routes.
The SV40MEM polypeptide was administered either intravenously (IV) or orally (PO) with the following schedule: IV administration of 5 mg/kg on days 0, 1, 2, and 3; PO administration of 1 mg/kg on days 0, 1, 2, 3, and 4. After 14 days, the mice were bled from the orbital sinus and the level of anti-SRBC antibodies were measured in the serum by ELISA. Briefly, Immulon 2 plates (Dynatech) were coated with SRBC membrane antigen (Anal. Biochem. 82:362-371 (1978)) at 5 μg/ml in 0.05 M carbonate/bicarbonate buffer (pH 9.6) and incubated overnight at 2-8° C. Plates were blocked for 1-hr at room temperature with Specimen Diluent Concentrate (Genetic Systems, Redmond, Wash.) diluted 1:10 with distilled water. The plates were washed in phosphate-buffered saline and 0.05% Tween-20 ("PBS/Tween"). Serum samples were diluted in Specimen Diluent and incubated for 1 hr at room temperature. After washing the plates in PBS/Tween, goat anti-mouse IgG1-horse radish peroxidase-conjugated ("IgG1-HRP") antibody (Southern Biotechnology, Birmingham Ala.) was added at 1:5000 dilution and incubated for 1 hr at room temperature. Plates were washed and conjugate binding was detected using 3,3',5,5'-tetramethylbenzidine ("TMB") (Genetic Systems) as the substrate. TMB was added and incubated for 15 min at room temperature. The reaction was stopped by the addition of 3 N H2 SO4. Absorbance at […] was recorded from duplicate samples using a microtiter plate reader (Bio Tek Instruments).

[2] = system: THP-1 human monocytic cells; assay: LPS-stimulated cytokine (TNF-α, IL-8) production in THP-1 cells; assay type: cell-based; conditions: 5 μM or 10 μM, 2 hr preincubation, 5 hr LPS stimulation, FIG. 2
Experimental: Amounts of TNF-α, IL-6, IL-8 and IL-10 were determined using the ELISA kits obtained from Genzyme following the manufacturer's instructions.
THP-1 control cells were harvested, washed and set up in RPMI 1640, 10% fetal calf serum, at a concentration of 2.56×10^6 cells/ml. Phosphate buffered saline ("PBS") or one of the two respective polypeptides SV40MEM or SV40 (a peptide having only the SV40 large T antigen NLS sequence) were added to the cells at a concentration of 10 μM or 20 μM. The cells were then plated into a 96-well plate with 0.1 ml/well. The plate was then incubated for 2 hr at 37° C. in a 5% CO2 atmosphere. Following the initial incubation, media or a titration of LPS was added to each of the wells in a volume of 0.1 ml. Thus, the final concentrations of polypeptides were 5 μM or 10 μM. Following 5 hr of LPS stimulation, supernatants were taken and TNF-α and IL-8 levels were determined by ELISA. In addition, cells treated with PBS or polypeptides, but not incubated with LPS, were removed at the time of supernatant removal to determine the viability of the cells following 7 hr of contact with the polypeptides.
This experiment was conducted to compare the inhibitory effect of the SV40MEM polypeptide and other inhibitory polypeptides on LPS induction of cytokine production. THP-1 control cells (ATCC 9/95 stock) were harvested, washed and set up in RPMI 1640, 10% fetal calf serum as described in Example 2. The cells were incubated for 2 hr with PBS or (1) the FGF signal sequence, (2) a polypeptide having the FGF signal sequence and the NLS of NF-κB p50 on the carboxy terminus of the signal sequence, (3) the SV40MEM polypeptide comprised of L-amino acids, or (4) the SV40MEM polypeptide comprised of D-amino acids at a final concentration of 5 μM. The cells were then plated into a 96-well plate with 0.1 ml/well. The plate was then incubated for 2 hr at 37° C. in a 5% CO2 atmosphere. Following the initial incubation, media or a titration of LPS was added to each of the wells in a volume of 0.01 ml/well. Following 5 hr of LPS stimulation, supernatants were taken and TNF-α levels were determined by ELISA.

IκB = IκB degradation in LPS-activated 70Z/3 cells (Western analysis); assay type: cell-based, murine; conditions: 2 μM, LPS 100 ng/ml for 0-120 min
Experimental: IκB is an inhibitor of NF-κB nuclear translocation. When cells are activated by the appropriate proinflammatory stimulus, e.g., cytokines or LPS, IκB is degraded. […] This experiment was done to explore the effect of the SV40MEM polypeptide on IKB degradation in murine 70Z/3 cells.
Murine 70Z/3 cells (5×10^7 cells) were incubated with the SV40MEM polypeptide (2 μM) or PBS. The two groups of cells were subdivided into aliquots and activated with LPS (100 ng/ml) for 0, 15, 30, 60, or 120 min. The cells were lysed in 200 μL lysing buffer (20 mM N-(2-hydroxyethyl)piperazine-N'-(2-ethanesulfonic acid) ("HEPES"), pH 7.2, 20 mM NaCl, 2.5 mM MgCI2, 0.1% nonylphenoxy polyethoxy ethanol ("NP-40")). The lysates were frozen until analyzed for the presence of IκB by Western analysis using an antibody directed to the carboxy terminus of IκB (Santa Cruz Corp., Santa Cruz, Calif.) according to the manufacturer's instructions.

Jurkat T-cells = assay: Apoptosis in anti-CD3-treated Jurkat T-cells; assay type: cell-based, human
Experimental: A 24-hr incubation of Jurkat T-cells with SV40MEM and anti-CD3, caused greater than 85% of the cells to apoptose.

[3] = IV 5 mg/kg days 0-3, serum day 14, FIG. 11A
[4] = PO 1 mg/kg days 0-4, serum day 14, FIG. 11B

Sequence: PKKKRKVAAVALLPAVLLALLAPKKKRKVC [SV40MEM, FGF signal peptide hydrophobic region flanked by SV40 large T antigen NLS]
- LPS-induced up-regulation of CD40 (70Z/3 murine B-cells): inhibited this up-regulation of CD40
- specific anti-SRBC response [1, 3]: inhibited
- total IgG levels [1, 3]: no effect
- specific anti-SRBC response [1, 4]: inhibited
- total IgG levels [1, 4]: no effect
- TNF-α production [2]: inhibited TNF-α production in a dose-dependent manner
- degradation of IκB (IκB): no apparent degradation of IκB
- cells undergoing apoptosis (Jurkat T-cells; 24-hr incubation with SV40MEM and anti-CD3): greater than 85%
- apoptosis (Jurkat T-cells; SV40MEM alone, without anti-CD3): Neither SV40MEM nor anti-CD3 alone caused significant apoptosis

From patent publication US5962415A, “Compositions comprising a peptide inhibitor of nuclear protein translocation and an immunosuppressant and methods of use thereof” (Bristol-Myers Squibb Co., priority 1998, dated 1999)
